The term IC50 denotes the concentration that gives 50% inhibition. A lower IC50 goes with higher potency.

One test addresses T1, CDK1/CycB (Homo sapiens, UniProt P06493).
T1 construct: GST; purchased ProQinase GmbH, Freiburg; host or cells: baculovirus-infected insect cells (Sf9)
Kind of test: CDK1/CycB kinase assay. The class given is biochemical. The settings on record: 0.5 μM ATP, histone IIIS, 33P filter assay. The procedure:
Recombinant CDK1- and CycB-GST fusion proteins, purified from baculovirus-infected insect cells (Sf9), were purchased from ProQinase GmbH, Freiburg. The histone IIIS used as kinase substrate can be purchased from Sigma.
CDK1/CycB (5 ng/μL) was incubated in the presence of various concentrations of test substances (0 μM, and within the range 0.01-100 μM) in 40 μL of assay buffer [50 mM Tris/HCl pH 8.0, 10 mM MgCl2, 0.1 mM Na ortho-vanadate, 1.0 mM dithiothreitol, 0.025% PEG 20000, 0.5 μM ATP, 10 μM histone IIIIS, 0.2 μCi/measurement point ^33P-gamma ATP, 0.05% NP40, 1.25% dimethyl sulphoxide] at 22° C. for 10 min. The reaction was stopped by adding EDTA solution (250 mM, pH 8.0, 15 μl/measurement point).
15 μl of each reaction mixture were loaded onto P30 filter strips (from Wallac), and non-incorporated ^33P-ATP was removed by washing the filter strips three times in 0.5% strength phosphoric acid for 10 min each time. After the filter strips had been dried at 70° C. for 1 hour, the filter strips were covered with scintillator strips (MeltiLex™ A, from Wallac) and baked at 90° C. for 1 hour. The amount of incorporated ^33P (substrate phosphorylation) was determined by scintillation measurement in a gamma radiation counter (Wallac).
The measured data were normalized to 0% inhibition (enzyme reaction without inhibitor) and 100% inhibition (all assay components except enzyme). The IC50 values were determined by means of a 4-parameter fit using the company's own software.

The test system of test [1] is human MCF7 breast tumour cells. Kind of test: MCF7 proliferation assay. The class given is cell-based. Conditions: 96 h, 4 days incubation, crystal violet staining. The procedure:
Cultivated human MCF7 breast tumour cells (ATCC HTB-22) were plated out in a density of 5000 cells/measurement point in 200 μl of growth medium (RPMI1640, 10% foetal calf serum, 2 mU/mL insulin, 0.1 nM oestradiol) in a 96-well multititre plate. After 24 hours, the cells from a plate (zero plate) were stained with crystal violet (see below), while the medium in the other plates was replaced by fresh culture medium (200 μl) to which the test substances had been added in various concentrations (0 μM, and in the range 0.01-30 μM; the final concentration of the solvent dimethyl sulphoxide was 0.5%). The cells were incubated in the presence of the test substances for 4 days. The cell proliferation was determined by staining the cells with crystal violet: the cells were fixed by adding 20 μl/measurement point of an 11% strength glutaraldehyde solution at room temperature for 15 min. After the fixed cells had been washed three times with water, the plates were dried at room temperature. The cells were stained by adding 100 μl/measurement point of a 0.1% strength crystal violet solution (pH adjusted to pH 3 by adding acetic acid). After the stained cells had been washed three times with water, the plates were dried at room temperature. The dye was dissolved by adding 100 μl/measurement point of a 10% strength acetic acid solution, and the extinction was determined by photometry at a wavelength of 595 nm. The percentage change in cell growth was calculated by normalizing the measurements to the extinctions of the zero point plate (=0%) and the extinction of the untreated (0 μM) cells (=100%). The IC50 values were determined by means of a 4-parameter fit using the company's own software.

The next test deals with T2, KDR kinase (Homo sapiens, UniProt P35968).
T2 construct: GST; purchased ProQinase GmbH, Freiburg; host or cells: baculovirus-infected insect cells (Sf9)
Kind of test: KDR kinase assay (HTRF). The class given is biochemical. Conditions: KDR kinase-GST, 10 μM ATP. The procedure:
The KDR-inhibitory activity of the substances of this invention was measured in the KDR-HTRF assay (HTRF=Homogeneous Time Resolved Fluorescence) described in the following paragraphs.
Recombinant KDR kinase-GST fusion protein purified from baculovirus-infected insect cells (Sf9) was purchased from ProQinase GmbH, Freiburg. The substrate used for the kinase reaction was the biotinylated peptide biotin-Ahx-DFGLARDMYDKEYYSVG (C terminus in acid form) which can be purchased for example from Biosynthan GmbH (Berlin-Buch, Germany).
KDR kinase was incubated in the presence of various concentrations of test substances in 5 μL of assay buffer [50 mM Hepes/NaOH pH 7.0, 25 mM MgCl2, 5 mM MnCl2, 1.0 mM dithiothreitol, 0.1 mM sodium orthovanadate, 10 μM adenosine triphosphate (ATP), 0.5 μM substrate, 0.001% (v/v) Nonidet-P40 (Sigma), 1% (v/v) dimethyl sulphoxide] at 22° C. for 45 min. The concentration of KDR was adapted to the particular activity of the enzyme and adjusted so that the assay operated in the linear range. The reaction was stopped by adding 5 μl of a solution of HTRF detection reagents (0.1 μM streptavidin-XLent and 2 nM PT66-Eu chelate, a Europium chelate-labelled anti-phospho-tyrosine antibody from Perkin Elmer) in aqueous EDTA solution (125 mM EDTA, 0.2% (w/v) bovine serum albumin (BSA) in 50 mM HEPES/NaOH pH 7.0).
The resulting mixture was incubated at 22° C. for 1 h in order to allow formation of the biotinylated phosphorylated substrate and the streptavidin-XLent and PT66-Eu chelate. The amount of phosphorylated substrate was then estimated by measuring the resonance energy transfer from the PT66-Eu chelate to the streptavidin-XLent. For this purpose, the fluorescence emissions at 620 nm and 665 nm after excitation at 350 nm were measured in an HTRF measuring instrument, e.g. a Rubystar (BMG Labtechnologies, Offenburg, Germany) or a Viewlux (Perkin-Elmer). The ratio of the emissions at 665 nm and at 622 nm was taken as a measure of the amount of phosphorylated substrate. The data were normalized (enzymic reaction without inhibitor=0% inhibition, all other assay components but no enzyme=100% inhibition) and IC50 values were calculated with a 4-parameter fit using an inhouse software.
A general note: TR-FRET usually uses a lanthanide donor and a delayed reading to cut background.

Molecules are shown by their SMILES.

T1 sequence (P06493 whole entry): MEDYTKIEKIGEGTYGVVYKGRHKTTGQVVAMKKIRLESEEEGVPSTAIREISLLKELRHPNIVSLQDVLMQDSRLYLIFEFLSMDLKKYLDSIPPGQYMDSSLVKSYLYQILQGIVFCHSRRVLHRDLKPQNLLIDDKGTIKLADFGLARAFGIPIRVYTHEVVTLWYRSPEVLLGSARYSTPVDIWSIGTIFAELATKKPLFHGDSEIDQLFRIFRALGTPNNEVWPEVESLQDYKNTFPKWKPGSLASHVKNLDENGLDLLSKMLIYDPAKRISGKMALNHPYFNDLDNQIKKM
T1 sequence (P14635 whole entry partner): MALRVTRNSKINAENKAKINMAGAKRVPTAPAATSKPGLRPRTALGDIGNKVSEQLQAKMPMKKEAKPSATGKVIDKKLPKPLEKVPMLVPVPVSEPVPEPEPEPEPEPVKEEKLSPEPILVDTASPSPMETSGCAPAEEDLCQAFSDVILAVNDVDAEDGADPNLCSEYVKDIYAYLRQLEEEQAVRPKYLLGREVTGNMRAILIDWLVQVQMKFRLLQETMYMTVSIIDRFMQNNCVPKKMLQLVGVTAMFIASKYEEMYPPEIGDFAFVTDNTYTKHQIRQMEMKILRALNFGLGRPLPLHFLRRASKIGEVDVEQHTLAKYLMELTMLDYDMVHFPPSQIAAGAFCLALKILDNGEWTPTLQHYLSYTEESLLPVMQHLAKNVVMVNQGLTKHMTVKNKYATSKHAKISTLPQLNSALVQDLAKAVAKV
T2 sequence (P35968 807-1356 limits assumed): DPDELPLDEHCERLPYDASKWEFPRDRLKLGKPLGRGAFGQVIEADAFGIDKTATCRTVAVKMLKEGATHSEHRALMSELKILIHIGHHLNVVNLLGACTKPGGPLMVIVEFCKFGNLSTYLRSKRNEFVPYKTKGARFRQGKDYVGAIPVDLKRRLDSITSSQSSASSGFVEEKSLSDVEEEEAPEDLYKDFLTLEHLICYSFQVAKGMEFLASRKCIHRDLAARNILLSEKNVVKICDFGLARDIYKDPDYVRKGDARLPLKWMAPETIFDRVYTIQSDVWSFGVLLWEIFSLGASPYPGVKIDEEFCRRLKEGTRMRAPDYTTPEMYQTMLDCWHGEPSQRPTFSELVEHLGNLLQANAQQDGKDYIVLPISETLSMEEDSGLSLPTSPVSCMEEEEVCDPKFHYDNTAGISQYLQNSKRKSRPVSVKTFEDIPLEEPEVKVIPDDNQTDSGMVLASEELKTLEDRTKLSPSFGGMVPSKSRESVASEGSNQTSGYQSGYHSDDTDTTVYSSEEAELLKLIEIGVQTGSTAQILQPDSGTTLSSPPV

For `C[C@@H](O)[C@@H](C)Oc1nc(Nc2ccc(Nc3nccc(OCCO)n3)cc2)ncc1Br` [Example 8, (2R,3R)-3-(5-Bromo-2-{4-[4-(2-hydroxyethoxy)pyrimidin-2-ylamino]-phenylamino}pyrimidin-4-yloxy)butan-2-ol], the figures for the IC50 (at CDK1/CycB; in test [1]; against KDR kinase) were 28 nM, 30 nM and 44 nM, respectively.

On to `C[C@@H](O)[C@@H](C)Oc1nc(Nc2ccc(Nc3ncccn3)cc2)ncc1Br` [Example 15], for which the concentration for half-maximal inhibition (IC50) is 27 nM against CDK1/CycB, 89 nM in test [1] and 74 nM at KDR kinase.

For `C[C@@H](O)[C@@H](C)Oc1nc(Nc2ccc(Nc3nccc(N)n3)cc2)ncc1Br` [Example 16], the IC50 on CDK1/CycB is 23 nM; in test [1], 420 nM; against KDR kinase it was 83 nM.

With `C[C@@H](O)[C@@H](C)Oc1nc(Nc2ccc(Nc3nccc(N(C)C)n3)cc2)ncc1Br` [Example 17], the values for the IC50 (against CDK1/CycB; in test [1]; at KDR kinase) were 71 nM, 98 nM and 62 nM, respectively.

For `C[C@@H](O)[C@@H](C)Oc1nc(Nc2ccc(Nc3nccc(NCCN(C)C)n3)cc2)ncc1Br` [Example 18], the IC50 against CDK1/CycB turned out to be 40 nM; in test [1] it was 170 nM; on KDR kinase, 140 nM.

For the compound `Cc1cnc(Nc2ccc(Nc3ncc(Br)c(O[C@H](C)[C@@H](C)O)n3)cc2)nc1NCCO` [Example 19], the IC50 on CDK1/CycB worked out at 51 nM; in test [1], 290 nM; at KDR kinase, 100 nM.

As for `C[C@@H](O)[C@@H](C)Oc1nc(Nc2ccc(Nc3ncc(Cl)c(NCCO)n3)cc2)ncc1Br` [Example 21], the IC50 against CDK1/CycB came out at 54 nM; in test [1], 91 nM; against KDR kinase, 73 nM.

`COc1ccnc(Nc2ccc(Nc3ncc(Br)c(O[C@H](C)[C@@H](C)O)n3)cc2)n1` [Example 22]: the IC50 against CDK1/CycB was found to be 130 nM; in test [1], 130 nM; on KDR kinase, 120 nM.

Regarding `C[C@@H](O)[C@@H](C)Oc1nc(Nc2ccc(Nc3ncc(Br)cn3)cc2)ncc1Br` [Example 24], the half-maximal inhibitory concentration (IC50) amounted to 110 nM against CDK1/CycB, 100 nM in test [1] and 240 nM on KDR kinase.

On to `C[C@@H](O)[C@@H](C)Oc1nc(Nc2cccc(Nc3ncccn3)c2)ncc1Br` [Example 25], for which the IC50 at CDK1/CycB came to 14 nM; in test [1] it was 270 nM; against KDR kinase, 75 nM.

With `C[C@@H](O)[C@@H](C)Oc1nc(Nc2cccc(Nc3nccc(OCCO)n3)c2)ncc1Br` [Example 27], the IC50 came to 16 nM against CDK1/CycB, 33 nM in test [1] and 32 nM against KDR kinase.

With `CSc1nc(Nc2ccc(Nc3ccccn3)cc2)ncc1Br` [Example 29], the IC50 at CDK1/CycB was > 1000 nM; in test [1], > 3000 nM; at KDR kinase, > 20000 nM.

For `CC(=O)NCCNc1nc(Nc2cccc(Nc3ncc(Br)c(NCCNC(C)=O)n3)c2)ncc1Br` [Example 30], the IC50 is 2000 nM in test [1] and 21 nM at KDR kinase.

Regarding `C[C@@H](O)[C@@H](C)Nc1nc(Nc2ccc(Oc3cccnc3)cc2)ncc1Br` [Example 33], the results for the IC50 (against CDK1/CycB; in test [1]; against KDR kinase) were 78 nM, 270 nM and 50 nM, respectively.

As to `C[C@@H](O)[C@@H](C)Nc1nc(Nc2ccc(Oc3ncccn3)cc2)ncc1Br` [Example 34], the half-maximal inhibitory concentration (IC50) against CDK1/CycB was determined as 35 nM; against KDR kinase it was 100 nM.

On to `C[C@@H](O)[C@@H](C)Nc1nc(Nc2ccc(Sc3nncn3C)cc2)ncc1Br` [Example 39], for which the half-maximal inhibitory concentration (IC50) against CDK1/CycB stood at 11 nM; against KDR kinase, 41 nM.

Turning to `C[C@@H](O)[C@@H](C)Sc1nc(Nc2ccc(Nc3ncc(Cl)c(NCCO)n3)cc2)ncc1Br` [Example 44], the half-inhibitory concentration (IC50) is > 1000 nM on CDK1/CycB, > 3000 nM in test [1] and 7300 nM against KDR kinase.
